One experiment has as its target T1, FGFR3 (V555M) (Homo sapiens, UniProt P22607, V555M).
T1 construct: made in house; host or cells: E. coli derived from BL21, infected with T7 phage
As to the kind of experiment: Kinase binding assay (kinase-tagged T7 phage, affinity beads, qPCR readout), FGFR3 (V555M). As to conditions: FGFR binding data. A digest of the protocol: (§1)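 Kd values derive from Hill-equation fits (slope −1, Levenberg-Marquardt) of qPCR-quantified kinase recovered from ligand-coated beads. Compounds ran as 11-point 3-fold series, final DMSO 0.9%, with 1 hour room-temperature binding.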

Experiment [1] concerns SNU-16 (Gastric Carcinoma), FGFR2 amplification. As to the kind of experiment: Cancer cell viability assay (Cell Titer-Glo), SNU-16. The class given is cell-based. To be noted: Homo sapiens, SNU-16 cells, 72 hours, read-out: SNU16 FGFR2 (IC50 nM). The text has this: RT112/84, UM-UC-14, SNU-16 and KG-1 Cancer Cell Line Cell Viability Assays
To detect the change of intracellular ATP by Cell Titer-Glo@ and to evaluate the inhibitory effect of the compounds on cancer cell lines by determining the in vitro IC50 value of the compounds.
Cell Titer-Glo@ 2.0 Luminescent cell viability assay reagent was purchased from Promega (Madison, WI). RT112/84, SNU-16, and KG-1 cell lines were purchased from American Type Culture Collection (Manassas, VA). UM-UC-14 cell line was purchased from Sigma (St. Louis, MO). RT112/84, UM-UC-14, SNU-16, and KG-1 cells were cultured in RPMI1640 media supplemented with 10% fetal bovine serum. Cultures were maintained at 37° C. in a humidified atmosphere of 5% CO2 and 95% air.
Cell Viability Assay Procedure: Cells were plated in 96-well clear bottom/white plates (Corning #3903) at 10,000 cells/well in 100 μl of media, incubated overnight. The next day, test compound DMSO stock solutions were made at 10 mM and 2 μM final concentration. Compounds were then added to cells in a 9-dose, […] dilution series starting at 30 μM with an HP 300e Digital Dispenser (each dose was applied in triplicate). DMSO was backfilled to each well up to 301 nL total volume of test compound+DMSO, and a total of 301 nL DMSO was added to a control/no test compound well in triplicate. The cells in cell culture plates were incubated with the compounds at 37° C. and 5% CO2 for 72 hours. Then 50 μl of Cell Titer Glo 2.0 reagent was added to each well of the cell culture plates. The contents were covered from light and mixed on an orbital shaker at room temperature for 10 min. Luminescence was recorded by a Synergy H1 Microplate Reader (Biotek, Winooski, VT). Cells were assessed as a percentage of DMSO only treated control cells. Curves were plotted and IC50 values were calculated using the GraphPad Prism 8 program based on a sigmoidal dose-response equation (4 parameter).
(In general: In ATP-based viability assays light output follows the ATP content of the culture.)

Another experiment addresses T2, FGFR2 (Homo sapiens, UniProt P21802).
T2 construct: made in house; host or cells: E. coli derived from BL21, infected with T7 phage
Briefly: Kinase binding assay (kinase-tagged T7 phage, affinity beads, qPCR readout), FGFR2. To be noted: FGFR binding data. In outline: as §1
A general note: Real-time PCR tracks product formation cycle by cycle.

The next experiment concerns the target T3, FGFR3 (Homo sapiens, UniProt P22607).
T3 construct: made in house; host or cells: E. coli derived from BL21, infected with T7 phage
As to the kind of experiment: Kinase binding assay (kinase-tagged T7 phage, affinity beads, qPCR readout), FGFR3. To be noted: FGFR binding data. A digest of the protocol:
as §1

The target in a further experiment is T4, FGFR1 (Homo sapiens, UniProt P11362).
T4 construct: made in house; host or cells: E. coli derived from BL21, infected with T7 phage
Briefly: Kinase binding assay (kinase-tagged T7 phage, affinity beads, qPCR readout), FGFR1. As to conditions: FGFR binding data. In outline: as §1

Bounds are passed on as bounds.

T1 sequence (P22607 23-806 V555M): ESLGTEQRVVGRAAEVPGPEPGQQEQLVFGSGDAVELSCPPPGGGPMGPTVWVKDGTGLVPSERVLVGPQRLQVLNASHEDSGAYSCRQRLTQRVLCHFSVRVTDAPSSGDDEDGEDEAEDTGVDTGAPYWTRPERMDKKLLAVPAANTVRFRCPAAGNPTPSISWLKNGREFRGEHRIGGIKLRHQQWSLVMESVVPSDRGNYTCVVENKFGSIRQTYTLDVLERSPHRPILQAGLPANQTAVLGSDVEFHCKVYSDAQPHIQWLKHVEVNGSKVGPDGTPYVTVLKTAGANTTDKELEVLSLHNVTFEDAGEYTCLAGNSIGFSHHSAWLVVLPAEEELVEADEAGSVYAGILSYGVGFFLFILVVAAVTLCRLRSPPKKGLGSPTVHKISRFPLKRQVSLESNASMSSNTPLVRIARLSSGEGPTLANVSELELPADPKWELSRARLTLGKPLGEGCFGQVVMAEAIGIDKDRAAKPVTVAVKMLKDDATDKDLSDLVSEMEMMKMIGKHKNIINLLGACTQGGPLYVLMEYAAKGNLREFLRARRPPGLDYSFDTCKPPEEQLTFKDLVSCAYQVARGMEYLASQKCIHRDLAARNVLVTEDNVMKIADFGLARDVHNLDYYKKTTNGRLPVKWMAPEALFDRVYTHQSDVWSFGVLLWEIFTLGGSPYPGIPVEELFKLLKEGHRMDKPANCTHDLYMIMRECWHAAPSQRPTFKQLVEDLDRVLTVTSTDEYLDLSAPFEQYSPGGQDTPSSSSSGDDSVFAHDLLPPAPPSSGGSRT
T2 sequence (P21802 22-821): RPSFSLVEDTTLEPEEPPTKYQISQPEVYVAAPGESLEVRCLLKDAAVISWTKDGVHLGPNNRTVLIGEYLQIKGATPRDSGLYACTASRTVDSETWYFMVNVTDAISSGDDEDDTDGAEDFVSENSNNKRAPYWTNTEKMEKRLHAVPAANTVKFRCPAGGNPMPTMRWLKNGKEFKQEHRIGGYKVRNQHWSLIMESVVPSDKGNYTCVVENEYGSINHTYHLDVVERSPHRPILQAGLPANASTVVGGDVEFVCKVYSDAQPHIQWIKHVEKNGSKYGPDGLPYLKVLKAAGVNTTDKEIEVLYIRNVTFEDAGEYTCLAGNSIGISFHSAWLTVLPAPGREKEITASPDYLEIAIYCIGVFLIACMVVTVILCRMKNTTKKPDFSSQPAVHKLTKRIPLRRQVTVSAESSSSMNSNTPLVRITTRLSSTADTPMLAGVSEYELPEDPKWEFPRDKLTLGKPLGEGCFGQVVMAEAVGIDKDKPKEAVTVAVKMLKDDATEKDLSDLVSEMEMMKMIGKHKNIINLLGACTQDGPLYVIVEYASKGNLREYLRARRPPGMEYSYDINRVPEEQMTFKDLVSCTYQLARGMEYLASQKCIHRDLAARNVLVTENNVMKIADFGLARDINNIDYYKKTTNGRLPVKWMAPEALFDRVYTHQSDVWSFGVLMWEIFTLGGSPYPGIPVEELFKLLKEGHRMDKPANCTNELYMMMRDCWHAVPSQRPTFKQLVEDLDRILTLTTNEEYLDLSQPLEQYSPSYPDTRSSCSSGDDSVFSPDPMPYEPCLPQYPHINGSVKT
T4 sequence (P11362 22-822): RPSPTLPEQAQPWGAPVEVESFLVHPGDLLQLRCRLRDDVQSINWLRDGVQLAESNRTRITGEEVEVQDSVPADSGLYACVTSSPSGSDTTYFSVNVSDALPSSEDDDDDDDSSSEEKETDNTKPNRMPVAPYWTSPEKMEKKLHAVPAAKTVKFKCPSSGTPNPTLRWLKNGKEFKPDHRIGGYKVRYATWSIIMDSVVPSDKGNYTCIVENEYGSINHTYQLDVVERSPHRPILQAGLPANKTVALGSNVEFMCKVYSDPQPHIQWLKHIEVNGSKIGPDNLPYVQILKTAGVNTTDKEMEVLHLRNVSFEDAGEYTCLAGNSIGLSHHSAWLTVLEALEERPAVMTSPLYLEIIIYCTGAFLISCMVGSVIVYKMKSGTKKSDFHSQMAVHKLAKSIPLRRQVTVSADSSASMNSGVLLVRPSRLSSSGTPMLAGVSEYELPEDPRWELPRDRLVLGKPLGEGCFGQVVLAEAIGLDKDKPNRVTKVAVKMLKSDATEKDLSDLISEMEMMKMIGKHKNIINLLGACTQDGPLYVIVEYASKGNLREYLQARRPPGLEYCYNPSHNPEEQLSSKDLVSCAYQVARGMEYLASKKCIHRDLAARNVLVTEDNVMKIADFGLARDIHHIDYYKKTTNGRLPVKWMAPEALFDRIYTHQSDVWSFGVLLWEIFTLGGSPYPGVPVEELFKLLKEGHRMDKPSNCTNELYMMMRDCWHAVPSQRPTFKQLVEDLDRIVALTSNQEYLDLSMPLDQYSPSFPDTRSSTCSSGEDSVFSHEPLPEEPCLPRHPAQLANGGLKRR
T3 sequence (P22607 23-806): as the sequence (P22607 23-806 V555M) above, with M533V counted along it

By Kd is commonly meant a measure of binding affinity in units of concentration. One may read the IC50 as the midpoint of a concentration-inhibition curve. As for `C=CC(=O)Nc1cnc2c(c1)c(C)cn2-c1nc(Nc2ccn(C)n2)ncc1C` [Example 97, N-[3-methyl-1-[5-methyl-2-[(1-methylpyrazol-3-yl)amino]pyrimidin-4-yl]pyrrolo[2,3-b]pyridin-5-yl]prop-2-enamide], the Kd on FGFR3 (V555M), on FGFR2, at FGFR3 and on FGFR1 was 0.1 to 100 nM each time. Further, the IC50 in experiment [1] fell in the range of 0.1 to 100 nM.

With `C=CC(=O)Nc1ccc2c(c1)c(C)cn2-c1nc(Nc2ccn(CCO)n2)ncc1C` [Example 100, N-[1-[2-[[1-(2-hydroxyethyl)pyrazol-3-yl]amino]-5-methyl-pyrimidin-4-yl]-3-methyl-indol-5-yl]prop-2-enamide], the Kd on FGFR3 (V555M), at FGFR2, at FGFR3 and on FGFR1 was 0.1 to 100 nM each time. The IC50 in experiment [1] was 0.1 to 100 nM.

For `C=CC(=O)Nc1ccc2c(c1)c(C)cn2-c1nc(Nc2cc(C)n(C)n2)ncc1C` [Example 102, N-[1-[2-[(1,5-dimethylpyrazol-3-yl)amino]-5-methyl-pyrimidin-4-yl]-3-methyl-indol-5-yl]prop-2-enamide], the Kd at FGFR3 (V555M), on FGFR2, on FGFR3 and on FGFR1 was 0.1 to 100 nM in each case. In experiment [1], the IC50 is 0.1 to 100 nM.

In the case of `C=CC(=O)Nc1ccc2c(-c3ccnc(Nc4cc(C)n(C)n4)n3)cn(C)c2c1` [Example 103, N-[3-[2-[(1,5-dimethylpyrazol-3-yl)amino]pyrimidin-4-yl]-1-methyl-indol-6-yl]prop-2-enamide], the Kd at FGFR3 (V555M) fell in the range of 100 to 250 nM; on FGFR2 it was 100 to 250 nM; on FGFR3 it was 0.1 to 100 nM; at FGFR1, 250 to 1000 nM. Also, in experiment [1], the IC50 was in the range of 0.1 to 100 nM.

Consider `Cc1cnc(Nc2ccnn2C)nc1-n1cc(C)c2cc(NC(=O)/C=C/CN(C)C)ccc21` [Example 107, (E)-4-(dimethylamino)-N-[3-methyl-1-[5-methyl-2-[(2-methylpyrazol-3-yl)amino]pyrimidin-4-yl]indol-5-yl]but-2-enamide], for which the dissociation constant (Kd) lay within 0.1 to 100 nM on FGFR3 (V555M), 100 to 250 nM at FGFR2, 0.1 to 100 nM on FGFR3 and 250 to 1000 nM on FGFR1. Moreover, the IC50 in experiment [1] lay within 0.1 to 100 nM.

Take `C=CC(=O)Nc1ccc2c(c1)c(C)cn2-c1nc(Nc2ccn(C3COC3)n2)ncc1C` [Example 120, N-[3-methyl-1-[5-methyl-2-[[1-(oxetan-3-yl)pyrazol-3-yl]amino]pyrimidin-4-yl]indol-5-yl]prop-2-enamide]: the Kd on FGFR3 (V555M), on FGFR2, on FGFR3 and on FGFR1 was 0.1 to 100 nM each time. The half-inhibitory concentration (IC50) in experiment [1] fell in the range of 0.1 to 100 nM.

On to `Cc1cnc(Nc2cnn(CCO)c2)nc1-n1cc(C)c2cc(NC(=O)/C=C/CN(C)C)ccc21` [Example 122, (E)-4-(dimethylamino)-N-[1-[2-[[1-(2-hydroxyethyl)pyrazol-4-yl]amino]-5-methyl-pyrimidin-4-yl]-3-methyl-indol-5-yl]but-2-enamide], for which the Kd on FGFR3 (V555M), on FGFR2, on FGFR3 and on FGFR1 was 0.1 to 100 nM each time. Also, the concentration for half-maximal inhibition (IC50) in experiment [1] was 0.1 to 100 nM.

Take `C=CC(=O)Nc1ccc2c(c1)c(C)cn2-c1nc(Nc2cc(C)[nH]n2)ncc1C` [Example 123, N-[3-methyl-1-[5-methyl-2-[(5-methyl-1H-pyrazol-3-yl)amino]pyrimidin-4-yl]indol-5-yl]prop-2-enamide]: the dissociation constant (Kd) at FGFR3 (V555M), on FGFR2, on FGFR3 and at FGFR1 was 0.1 to 100 nM in each case. Besides, in experiment [1], the IC50 lay within 0.1 to 100 nM.

Regarding `C=CC(=O)Nc1cnc2c(c1)c(C)cn2-c1nc(Nc2cc(C)n(C(=O)OC(C)(C)C)n2)ncc1C` [Example 124, tert-butyl 5-methyl-3-[[5-methyl-4-[3-methyl-5-(prop-2-enoylamino)pyrrolo[2,3-b]pyridin-1-yl]pyrimidin-2-yl]amino]pyrazole-1-carboxylate], the dissociation constant Kd at FGFR3 (V555M) was in the range of 0.1 to 100 nM; at FGFR2, 100 to 250 nM; on FGFR3 it was 0.1 to 100 nM; on FGFR1 it was 100 to 250 nM. Also, in experiment [1], the half-inhibitory concentration (IC50) is 0.1 to 100 nM.

For `C=CC(=O)Nc1cnc2c(c1)c(C)cn2-c1nc(Nc2cnn(CCO)c2)ncc1C` [Example 125, N-[1-[2-[[1-(2-hydroxyethyl)pyrazol-4-yl]amino]-5-methyl-pyrimidin-4-yl]-3-methyl-pyrrolo[2,3-b]pyridin-5-yl]prop-2-enamide], the Kd on FGFR3 (V555M), at FGFR2, on FGFR3 and at FGFR1 was 0.1 to 100 nM throughout. Also, the IC50 in experiment [1] was 0.1 to 100 nM.

For the molecule `C=CC(=O)Nc1ccc2c(-c3nc(Nc4cnn(CCO)c4)ncc3C)cn(C)c2c1` [Example 126, N-[3-[2-[[1-(2-hydroxyethyl)pyrazol-4-yl]amino]-5-methyl-pyrimidin-4-yl]-1-methyl-indol-6-yl]prop-2-enamide], the Kd on FGFR3 (V555M), at FGFR2, at FGFR3 and at FGFR1 was 0.1 to 100 nM in each case. The IC50 in experiment [1] is 0.1 to 100 nM.

`C=CC(=O)Nc1ccc2c(c1)c(C)cn2-c1cc(Nc2cnn(C)c2)nnc1C` [Example 221, N-[3-methyl-1-[3-methyl-6-[(1-methylpyrazol-4-yl)amino]pyridazin-4-yl]indol-5-yl]prop-2-enamide]: the equilibrium dissociation constant (Kd) on FGFR3 (V555M), at FGFR2, at FGFR3 and on FGFR1 was above 1000 nM each time.

As to `C=CC(=O)Nc1ccc2c(c1)c(C)cn2-c1cc(Nc2cn(C)nc2C)ncn1` [Example 222, N-[1-[6-[(1,3-dimethylpyrazol-4-yl)amino]pyrimidin-4-yl]-3-methyl-indol-5-yl]prop-2-enamide], the Kd on FGFR3 (V555M), on FGFR2, at FGFR3 and on FGFR1 was above 1000 nM in each case.

For the molecule `C=CC(=O)Nc1ccc2c(c1)c(C)cn2-c1cc(Nc2cnn(C)c2)ncc1C` [Example 223, N-[3-methyl-1-[5-methyl-2-[(1-methylpyrazol-4-yl)amino]-4-pyridyl]indol-5-yl]prop-2-enamide], the dissociation constant (Kd) at FGFR3 (V555M), at FGFR2, at FGFR3 and on FGFR1 was 0.1 to 100 nM in each case.

As to `C=CC(=O)Nc1ccc2c(c1)c(C)cn2-c1cc(Nc2cn(C)nc2C)ncc1C` [Example 224, N-[1-[2-[(1,3-dimethylpyrazol-4-yl)amino]-5-methyl-4-pyridyl]-3-methyl-indol-5-yl]prop-2-enamide], the Kd is 100 to 250 nM on FGFR3 (V555M), 250 to 1000 nM on FGFR2, 100 to 250 nM at FGFR3 and 250 to 1000 nM on FGFR1.

In the case of `C=CC(=O)Nc1ccc2c(c1)c(C)cn2-c1nc(Nc2cn(C)nc2C)nnc1Cl` [Example 225, N-[1-[6-chloro-3-[(1,3-dimethylpyrazol-4-yl)amino]-1,2,4-triazin-5-yl]-3-methyl-indol-5-yl]prop-2-enamide], the Kd was 250 to 1000 nM at FGFR3 (V555M), above 1000 nM at FGFR2, 250 to 1000 nM on FGFR3 and above 1000 nM at FGFR1.

Take `C=CC(=O)Nc1ccc2c(c1)c(C)c(C)n2-c1nc(Nc2cnn(C)c2)ncc1F` [Example 226, N-[1-[5-fluoro-2-[(1-methylpyrazol-4-yl)amino]pyrimidin-4-yl]-2,3-dimethyl-indol-5-yl]prop-2-enamide]: the dissociation constant Kd on FGFR3 (V555M), on FGFR2, at FGFR3 and at FGFR1 was 0.1 to 100 nM in each case.

In the case of `C=CC(=O)Nc1ccc2c(c1)cc(C)n2-c1nc(Nc2cnn(C)c2)ncc1F` [Example 227, N-[1-[5-fluoro-2-[(1-methylpyrazol-4-yl)amino]pyrimidin-4-yl]-2-methyl-indol-5-yl]prop-2-enamide], the equilibrium dissociation constant (Kd) on FGFR3 (V555M) is 0.1 to 100 nM; on FGFR2, 0.1 to 100 nM; at FGFR3, 0.1 to 100 nM; at FGFR1 it was 100 to 250 nM.

In the case of `C=CC(=O)Nc1ccc2c(c1)c1ccccc1n2-c1nc(Nc2cnn(C)c2)ncc1F` [Example 228, N-[9-[5-fluoro-2-[(1-methylpyrazol-4-yl)amino]pyrimidin-4-yl]carbazol-3-yl]prop-2-enamide], the Kd is above 1000 nM at FGFR3 (V555M), 0.1 to 100 nM on FGFR2, 0.1 to 100 nM on FGFR3 and 0.1 to 100 nM at FGFR1.

Source of the values: US20240190849A1, “AMINOPYRIMIDINE COMPOUNDS AND METHODS OF THEIR USE” (TYRA BIOSCIENCES, INC., priority 2021, published 2024).
